Data taken from patent US20070117743A1, “New antitumoral compounds” (priority 2003, published 2007).
Where a SMILES comes first, the peptide text is derived from it. Bridges are numbered along the chain shown (N, C = ends). [ ]: non-standard residue; d: D form. The star is where a group is joined. d(aIle) = CC[C@H](C)[C@@H](N)C(=O)O; d(aThr) = C[C@@H](O)[C@@H](N)C(=O)O; Hexanoyl(5-Me) = CC(C)CCCC(=O)*; Orn = NCCC[C@H](N)C(=O)O; Dhb = C/C=C(\N)C(=O)O

Experiments:
Assay type in all cases: cell-based, human
IGROV-ET = assay: SRB colorimetric assay of cell growth and viability, IGROV-ET; conditions: 48 hours exposure; for CC50: read-out: LC50 IGROV-ET
LNCaP = assay: SRB colorimetric assay of cell growth and viability, LNCaP; conditions: 48 hours exposure; for GI50: read-out: GI50 LN-caP; for CC50: read-out: LC50 LN-caP
K-562 = assay: SRB colorimetric assay of cell growth and viability, K-562; conditions: 48 hours exposure; for CC50: read-out: LC50 K-562
HeLa = assay: SRB colorimetric assay of cell growth and viability, HeLa; conditions: 48 hours exposure; for CC50: read-out: LC50 HELA
DU-145 = assay: SRB colorimetric assay of cell growth and viability, DU-145; conditions: 48 hours exposure
LoVo = assay: SRB colorimetric assay of cell growth and viability, LoVo; conditions: 48 hours exposure; for CC50: read-out: LC50 LOVO
A-549 = assay: SRB colorimetric assay of cell growth and viability, A-549; conditions: 48 hours exposure; for GI50: read-out: GI50 A-549; for CC50: read-out: LC50 A-549
PANC-1 = assay: SRB colorimetric assay of cell growth and viability, PANC-1; conditions: 48 hours exposure; for CC50: read-out: LC50 PANC-1
LoVo-Dox = assay: SRB colorimetric assay of cell growth and viability, LoVo-Dox; conditions: 48 hours exposure; for CC50: read-out: LC50 LOVO-DOX
Method in brief: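 First, 5×10^3 cells per well attach for 18 hours in RPMI 1640 with 10% FBS at 37° C and 5% CO2. Next, samples spanning 10 to 10^−8 μg/mL are added for 48 hours. Finally, cells are fixed with TCA, stained with SRB for 10 minutes and read at 490 nm.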

HT-29 = assay: SRB colorimetric assay of cell growth and viability, HT-29; conditions: 48 hours exposure; for GI50: read-out: GI50 HT-29; for CC50: read-out: LC50 HT-29
SK-MEL-28 = assay: SRB colorimetric assay of cell growth and viability, SK-MEL-28; conditions: 48 hours exposure; for CC50: read-out: LC50 MEL-28
IGROV-1 = assay: SRB colorimetric assay of cell growth and viability, IGROV-1; conditions: 48 hours exposure
SK-BR-3 = assay: SRB colorimetric assay of cell growth and viability, SK-BR-3; conditions: 48 hours exposure
HeLa-APL = assay: SRB colorimetric assay of cell growth and viability, HeLa-APL; conditions: 48 hours exposure; for CC50: read-out: LC50 HELA-APL

SMILES: C/C=C1\NC(=O)[C@H](Cc2ccccc2)NC(=O)[C@@H](C(C)C)NC(=O)[C@@H]([C@@H](C)CC)NC(=O)[C@H](NC(=O)[C@H](NC(=O)[C@H](CCCN)NC(=O)[C@H]2CCCN2C(=O)[C@H](NC(=O)[C@@H](NC(=O)[C@@H](NC(=O)[C@H](NC(=O)CCCC(C)C)C(C)C)C(C)C)C(C)C)C(C)C)[C@@H](C)CC)[C@@H](C)OC(=O)[C@H](C(C)C)NC1=O [Compound 6, [Val^12]-KF] ({Hexanoyl(5-Me)}-[dV]VV[dV][dP][Orn][d(aIle)][d(aThr)][d(aIle)][dV]F[Dhb]V; ester 8-C)
- GI50 (IGROV-ET): 154 nM
- TGI IGROV-ET (IGROV-ET): 2.91E−07 Molar
- CC50 (IGROV-ET): 549 nM
- TGI LN-caP (LNCaP): 1.00E−06 Molar
- GI50 (LNCaP): 313 nM
- CC50 (LNCaP): 2780 nM
- GI50 (K-562): 661 nM
- TGI K-562 (K-562): 1.44E−06 Molar
- CC50 (K-562): 3070 nM
- GI50 (HeLa): 144 nM
- TGI HELA (HeLa): 2.63E−07 Molar
- CC50 (HeLa): 480 nM
- GI50 (DU-145): 165 nM
- LC50 (concentration causing 50% net cell kill) (DU-145): 523 nM
- TGI DU-145 (DU-145): 2.94E−07 Molar
- GI50 (LoVo): 133 nM
- TGI LOVO (LoVo): 2.48E−07 Molar
- CC50 (LoVo): 463 nM
- TGI A-549 (A-549): 8.54E−07 Molar
- GI50 (A-549): 257 nM
- CC50 (A-549): 2360 nM
- GI50 (PANC-1): 1020 nM
- TGI PANC-1 (PANC-1): 1.96E−06 Molar
- CC50 (PANC-1): 3800 nM
- GI50 (LoVo-Dox): 159 nM
- TGI LOVO-DOX (LoVo-Dox): 2.83E−07 Molar
- CC50 (LoVo-Dox): 503 nM
- TGI HT-29 (HT-29): 2.68E−07 Molar
- GI50 (HT-29): 148 nM
- CC50 (HT-29): 485 nM
- GI50 (SK-MEL-28): 175 nM
- TGI MEL-28 (SK-MEL-28): 2.94E−07 Molar
- CC50 (SK-MEL-28): 492 nM
- GI50 (IGROV-1): 150 nM
- LC50 (concentration causing 50% net cell killing) (IGROV-1): 598 nM
- TGI IGROV (IGROV-1): 2.99E−07 Molar
- GI50 (SK-BR-3): 102 nM
- LC50 (SK-BR-3): 482 nM
- TGI SK-BR-3 (SK-BR-3): 2.22E−07 Molar
- GI50 (HeLa-APL): 379 nM
- TGI HELA-APL (HeLa-APL): 1.04E−06 Molar
- CC50 (HeLa-APL): 3110 nM

SMILES: C/C=C1\NC(=O)[C@H](Cc2ccccc2)NC(=O)[C@@H](C(C)C)NC(=O)[C@@H]([C@@H](C)CC)NC(=O)[C@H](NC(=O)[C@H](NC(=O)[C@H](CCCN)NC(=O)[C@H]2CCCN2C(=O)[C@H](NC(=O)[C@@H](NC(=O)[C@H](NC(=O)[C@H](NC(=O)CCCC(C)C)C(C)C)[C@H](C)O)C(C)C)C(C)C)[C@@H](C)CC)[C@@H](C)OC(=O)[C@H](C(C)C)NC1=O [Compound 7, [D-Thr^12]-KF]
- GI50 (IGROV-ET): ≥ 6770 nM
- TGI IGROV-ET (IGROV-ET): 6.77E−06 Molar
- CC50 (IGROV-ET): ≥ 6770 nM
- TGI LN-caP (LNCaP): 6.77E−06 Molar
- GI50 (LNCaP): 6040 nM
- CC50 (LNCaP): ≥ 6770 nM
- GI50 (K-562): ≥ 6770 nM
- TGI K-562 (K-562): 6.77E−06 Molar
- CC50 (K-562): ≥ 6770 nM
- GI50 (HeLa): ≥ 6770 nM
- TGI HELA (HeLa): 6.77E−06 Molar
- CC50 (HeLa): ≥ 6770 nM
- GI50 (DU-145): ≥ 6770 nM
- LC50 (concentration causing 50% net cell kill) (DU-145): ≥ 6770 nM
- TGI DU-145 (DU-145): 6.77E−06 Molar
- GI50 (LoVo): ≥ 6770 nM
- TGI LOVO (LoVo): 6.77E−06 Molar
- CC50 (LoVo): ≥ 6770 nM
- TGI A-549 (A-549): 6.77E−06 Molar
- GI50 (A-549): ≥ 6770 nM
- CC50 (A-549): ≥ 6770 nM
- GI50 (PANC-1): ≥ 6770 nM
- TGI PANC-1 (PANC-1): 6.77E−06 Molar
- CC50 (PANC-1): ≥ 6770 nM
- GI50 (LoVo-Dox): 5140 nM
- TGI LOVO-DOX (LoVo-Dox): 6.77E−06 Molar
- CC50 (LoVo-Dox): ≥ 6770 nM
- TGI HT-29 (HT-29): 6.77E−06 Molar
- GI50 (HT-29): ≥ 6770 nM
- CC50 (HT-29): ≥ 6770 nM
- GI50 (SK-MEL-28): ≥ 6770 nM
- TGI MEL-28 (SK-MEL-28): 6.77E−06 Molar
- CC50 (SK-MEL-28): ≥ 6770 nM
- GI50 (IGROV-1): ≥ 6770 nM
- LC50 (concentration causing 50% net cell killing) (IGROV-1): ≥ 6770 nM
- TGI IGROV (IGROV-1): 6.77E−06 Molar
- GI50 (SK-BR-3): ≥ 6770 nM
- LC50 (SK-BR-3): ≥ 6770 nM
- TGI SK-BR-3 (SK-BR-3): 6.77E−06 Molar
- GI50 (HeLa-APL): ≥ 6770 nM
- TGI HELA-APL (HeLa-APL): 6.77E−06 Molar
- CC50 (HeLa-APL): ≥ 6770 nM
